According to patent publication US8486927B2 (Thar Pharmaceuticals, priority 2007, dated 2013):

Experiments:
[1] = In-vivo absorption test in rats, oral gavage, lamotrigine in blood serum by HPLC-UV; design: species or system Rats Sprague-Dawley; settings: for Plasma concentration of lamotrigine in rats: rats (N = 5), oral gavage, 10 mg/kg as lamotrigine
Experimental: Rats historically have been used in safety evaluation and PK screening studies and are recommended by appropriate regulatory agencies.
Dose preparation; dose is prepared and suspended in 1 ml of 5% PEG 400 with 95% methylcellulose solution (weight percentage); methylcellulose solution is prepared by dissolving 0.5% methylcellulose in water (weight percentage).
The machine was operated by Total Chrome Workstation (Perkin Elmer Instruments LLC).

[2] = cited from earlier work
[3] = Sprague-Dawley, rat, plasma, po, 10 mg/kg

Structure (SMILES) | Plasma concentration of lamotrigine in rats ([1]; time 0 hrs) | Plasma concentration of lamotrigine in rats ([1]; time 0.5 hrs) | Plasma concentration of lamotrigine in rats ([1]; time 1 hrs) | Plasma concentration of lamotrigine in rats ([1]; time 2 hrs) | Plasma concentration of lamotrigine in rats ([1]; time 3 hrs) | Plasma concentration of lamotrigine in rats ([1]; time 4 hrs) | Plasma concentration of lamotrigine in rats ([1]; time 8 hrs) | Plasma concentration of lamotrigine in rats ([1]; time 12 hrs) | Plasma concentration of lamotrigine in rats ([1]; time 24 hrs) | concentration at 0 h [1, 3] | concentration at 0.5 h [1, 3] | concentration at 1 h [1, 3] | concentration at 2 h [1, 3] | concentration at 3 h [1, 3] | concentration at 4 h [1, 3] | concentration at 8 h [1, 3] | concentration at 12 h [1, 3] | concentration at 24 h [1, 3] | extent of absorption, solid versus solution ([2]; drug delivered as a solid or as a solution) | extent of absorption by site of delivery ([2]; drug delivered to any point in the gastrointestinal tract between the stomach and the ascending colon)
NC(=O)c1cccnc1.Nc1nnc(-c2cccc(Cl)c2Cl)c(N)n1 [Cocrystal 2] | 0 ng/mL | 1184 ng/mL | 1561 ng/mL | 1605 ng/mL | 1757 ng/mL | 1609 ng/mL | 1823 ng/mL | 1840 ng/mL | 971.8 ng/mL | – | – | – | – | – | – | – | – | – | – | –
Nc1nnc(-c2cccc(Cl)c2Cl)c(N)n1 [Lamotrigine, 6-(2,3-dichlorophenyl)-1,2,4-triazine-3,5-diamine] | – | – | – | – | – | – | – | – | – | 0 ng/mL | 1590 ng/mL | 2240 ng/mL | 2370 ng/mL | 2420 ng/mL | 2480 ng/mL | 2680 ng/mL | 2860 ng/mL | 2130 ng/mL | similar | consistent
